# Data reported in ChEMBL document CHEMBL1130730, “Immunomodulatory activity of thunberginol A and related compounds isolated from Hydrangeae Dulcis Folium on splenocyte proliferation activated by mitogens” (Bioorg Med Chem Lett, 1998).
# The source made the active and inactive calls. No cut-off for these calls is given here.
# What was measured:
# [1] = organism: Mus musculus; assay: Tested for inhibitory activity against B lymphocyte proliferation induced by LPS at 10e-5 M; significantly potentiated the proliferation; assay type: functional
# [2] = organism: Mus musculus; assay: Tested for inhibitory activity against T lymphocyte proliferation induced by PHA; showed no suppressive effect; assay type: functional
# [3] = organism: Mus musculus; assay: Tested for inhibitory activity against T lymphocyte proliferation induced by Con A at 10e-5 M; slightly suppressed the proliferation; assay type: functional
# [4] = test system: Rattus norvegicus; assay: Tested for in vivo inhibitory activity against asthmatic bronchoconstriction in rats induced by antigen-antibody reaction; showed inhibition; assay type: functional, organism-based
# [5] = test system: Mus musculus; assay: Tested for inhibitory activity against contact ear dermatitis in mice induced by dinitrofluorobenzene by consecutive oral administration in the primary sensitizing phase; showed inhibition; assay type: functional, organism-based
# [6] = test system: Mus musculus; assay: Tested for inhibitory activity against hind paw edema sensitized with sheep red blood cells (SRBC) in both sensitizing and inflammatory phases after oral administration; showed reduction
# [7] = test system: Rattus norvegicus; assay: Tested for in vivo inhibitory activity against passive cutaneous anaphylaxis (PCA) reaction in rats; showed inhibition; assay type: functional, organism-based
# [8] = organism: Mus musculus; assay: Tested for inhibitory activity against B lymphocyte proliferation induced by LPS at 10e-5 M; significantly suppressed the proliferation; assay type: functional
# [9] = test system: Rattus norvegicus; assay: Tested for […] inhibitory activity against type 1 allergic reactions after oral administration; showed inhibition; assay type: functional, organism-based
# [10] = organism: Mus musculus; assay: Tested for inhibitory activity against T lymphocyte proliferation induced by Con A at 10e-6 to 10e-5 M; significantly suppressed the proliferation; assay type: functional
# [11] = organism: Mus musculus; assay: Tested for inhibitory activity against T lymphocyte proliferation induced by Con A at 10e-7 M; showed potent suppressive effect; assay type: functional
# [12] = organism: Mus musculus; assay: Tested for inhibitory activity against B lymphocyte proliferation induced by LPS at 10e-7 M; suppressed the proliferation; assay type: functional
# [13] = organism: Mus musculus; assay: Tested for inhibitory activity against T lymphocyte proliferation induced by PHA at 10e-7 M; showed potent suppressive effect; assay type: functional
SMILES,Activity [1],Activity [2],Activity [3],other results
O=C1OC(c2ccc(O)cc2)Cc2cccc(O)c21 (stereo not drawn),no suppressive effect,no suppressive effect,–,–
O=C1OC(c2ccc(O)c(O)c2)Cc2cc(O)cc(O)c21 (stereo not drawn),no suppressive effect,no suppressive effect,no suppressive effect,–
O=C1OC(c2ccc(O)cc2)Cc2cc(O)cc(O)c21 (stereo not drawn),no suppressive effect,no suppressive effect,no suppressive effect,–
COc1ccc([C@H]2Cc3cccc(O)c3C(=O)O2)cc1O,significantly potentiated the proliferation,–,significantly potentiated the proliferation,–
O=c1oc(-c2ccc(O)c(O)c2)cc2cccc(O)c12,–,–,–,Activity [4]: inhibition; Activity [5]: inhibition; Activity [6]: inhibition; Activity [7]: inhibition; Activity [8]: inhibition; Activity [9]: inhibition; Activity [10]: inhibition
O=c1oc(-c2ccc(O)cc2)cc2cccc(O)c12,no suppressive effect,no suppressive effect,–,–
"C[C@]12CCC(=O)C=C1CCC1[C@@H]2[C@@H](O)C[C@@]2(C)[C@H]1CC[C@]2(O)C(=O)CO (single isomer, unassigned)",–,–,–,Activity [11]: Active; Activity [12]: Active; Activity [13]: Active
O=c1oc(-c2ccc(O)c(O)c2)cc2cc(O)cc(O)c12,no suppressive effect,no suppressive effect,–,–
O=C1O/C(=C\c2ccc(O)c(O)c2)c2cccc(O)c21,no suppressive effect,no suppressive effect,–,–
O=C(O)c1c(O)cccc1/C=C/c1ccc(O)c(O)c1,no suppressive effect,no suppressive effect,–,–
COc1ccc([C@H]2Cc3cc(O)cc(O)c3C(=O)O2)cc1O,significantly potentiated the proliferation,–,significantly potentiated the proliferation,–
O=C1OC(c2ccc(O)c(O)c2)Cc2cccc(O)c21 (stereo not drawn),no suppressive effect,no suppressive effect,no suppressive effect,–
